Entries after “also recorded” stand apart in the source; their conditions may differ.
Assays:
[1] = system: tubulin; assay: In vitro tubulin polymerization, fraction of tubulin polymerized (% TP); format: biochemical
Description: (§1) The cytotoxicity analysis was supplemented with data from two independent in vitro tubulin polymerization assays. In one assay, the fraction of tubulin polymerized into microtubules upon exposure to a given concentration of the respective compound was determined (see Table 2). In the other assay, tubulin polymerization kinetics upon exposure to the respective compounds was determined using purified rat brain tubulin through measurement of the absorbance at 350 nm (see FIG. 3). For this analysis, paclitaxel, epothilone A (1) and epothilone B (2) were used as controls while compounds 9, 11 and 12 were selected for in vitro analysis.
(§2) FIG. 16 is a table of tubulin polymerization potency^a and cytotoxicity^b of epothilones 1 through 12 and paclitaxel against human epidermoid cancer cell lines.^a% TP=percent tubulin polymerized after incubation of tubulin with a known concentration of compound (typically 3 μM).^b Cytotoxicity towards human cancer cell lines as IC50 values given in nM. KB-31: epidermoid Taxol®-sensitive, KB-8511: epidermoid Taxol®-resistant (due to P-gp over expression).

[2] = system: A8 (β274) epothilone-selected β-tubulin mutant clone of 1A9; assay: 72 h growth inhibition assay (SRB), epothilone-selected clone A8; format: cell-based, human
Description: (§3) The biological activities of the synthesized epothilones were evaluated through cytotoxicity and tubulin polymerization assays. Cytotoxicity was first evaluated in a set of ovarian carcinoma cell lines, including a parental cell line (IA9) and three drug-resistant cell lines, namely the paclitaxel-resistant cell lines (Giannakakou, P.; et al. J. Biol. Chem. 1997, 272, 17118-17125) IA9/PTX10 and IA9/PTX22 and the epothilone-resistant cell line (Giannakakou, P.; et al. Proc. Natl. Acad. Sci. USA 2000, 97, 2904-2909) 1A9/A8. These resistant cell lines harbor distinct acquired P-tubulin mutations which affect drug-tubulin interaction and result in impaired taxane and epothilone-driven tubulin polymerization. Further cytotoxicity studies were undertaken using a set of human epidermoid cancer cell lines, including a parent cell line (KB-31), and a paclitaxel-resistant (due to P-gp overexpression) cell line (KB-8511).
(§4) IC50 values for each compound are given in nM and represent the mean of 3-5 independent experiments±standard error of the mean. Relative resistance (RR) is calculated as an IC50 value for each resistant subline divided by that for the parental cell line (1A9).^b Data from reference 3. CP=cyclopropyl, CB=cyclobutyl, na=not applicable, nd=not determined, py=5-methylpyridine side chain.

[3] = system: purified rat brain tubulin; assay: Tubulin polymerization kinetics, absorbance at 350 nm; format: biochemical; settings: for in vitro tubulin polymerization activity (in words) / maximum degree of tubulin polymerization compared with epothilone A (1): A350
Description: as §1

[4] = system: ovarian carcinoma (1A9, PTX10, PTX22, A8) and epidermoid (KB-31, KB-8511) cancer cell lines; assay: Cytotoxicity, general statements over the cell line panel; format: cell-based, human; settings: for cytotoxic activity (in words): cell line not specified or all cell lines
Description: as §3, §4, §2

[5] = system: PTX10 (β270) paclitaxel-selected β-tubulin mutant clone of 1A9; assay: 72 h growth inhibition assay (SRB), paclitaxel-selected clone PTX10; format: cell-based, human
Description: as §3, §4

[6] = system: PTX22 (β364) paclitaxel-selected β-tubulin mutant clone of 1A9; assay: 72 h growth inhibition assay (SRB), paclitaxel-selected clone PTX22; format: cell-based; settings: Homo sapiens, read-out: IC50 against PTX22
Description: as §3, §4

[7] = system: 1A9 human ovarian carcinoma cells; assay: 72 h growth inhibition assay (SRB), parental 1A9 cells; format: cell-based
Description: as §3, §4

[8] = system: KB-31 human epidermoid cancer cell line (Taxol-sensitive); assay: Cytotoxicity against human epidermoid cancer cell line KB-31; format: cell-based; settings: parental sensitive KB-31 cells; 3 compared with epothilone A (1)
Description: as §3, §2

C/C(=C\c1ccc(C)cn1)[C@@H]1C[C@@H]2C[C@@H]2CCC[C@H](C)[C@H](O)[C@@H](C)C(=O)C(C)(C)[C@@H](O)CC(=O)O1 [Compound 9]
tubulin polymerization promotion (in words) [1]: potent tubulin polymerization promoters
activity against clone A8 versus parental line (in words) [2]: lose some activity
in vitro tubulin polymerization activity (in words) [3]: good in vitro activity
maximum degree of tubulin polymerization compared with epothilone A (1) [3]: smaller
cytotoxic activity (in words) [4]: highly active; also recorded: increased cytotoxic activity; also recorded: cytotoxic agents
factor less active than 11 ([4]; cytotoxicity relative to analog 11): three to five
activity against clone PTX10 versus parental line (in words) [5]: lose some activity

15S-cyclobutyl epothilone A [Compound 4]
tubulin polymerization promotion (in words) [1]: potent tubulin polymerization promoters
activity against clone A8 versus parental line (in words) [2]: lose some activity
cytotoxic activity (in words) [4]: retains good activity; also recorded: cytotoxic agents
activity against clone PTX10 versus parental line (in words) [5]: lose some activity

C/C(=C\c1csc(C)n1)[C@@H]1C[C@@H]2O[C@@H]2CCC[C@H](C)[C@H](O)[C@@H](C)C(=O)C(C)(C)[C@@H](O)CC(=O)O1 [Compound 1, epothilone A]
time to A350=0.25 ([3]; polymerization kinetics): 2 min

C/C(=C\c1ccc(C)cn1)[C@@H]1C[C@@H]2C[C@H]2CCC[C@H](C)[C@H](O)[C@@H](C)C(=O)C(C)(C)[C@@H](O)CC(=O)O1 [Compound 11, (12R, 13S, 15S)-cyclopropyl 5-methylpyridine epothilone A]
tubulin polymerization promotion (in words) [1]: potent tubulin polymerization promoters
activity against clone A8 versus parental line (in words) [2]: lose some activity
IC50 ([2]; Homo sapiens, 72 h, SRB, read-out: IC50 against A8): < 10 nM
IC50 [6]: < 10 nM
IC50 ([7]; Homo sapiens, Ovarian carcinoma cell, 1A9, 72 h, SRB, read-out: IC50 in the 1A9 human ovarian carcinoma cell line): 0.6 nM
in vitro tubulin polymerization activity (in words) [3]: good in vitro activity
maximum degree of tubulin polymerization compared with epothilone A (1) [3]: smaller
cytotoxic activity (in words) [4]: outstanding activity; also recorded: increased cytotoxic activity; also recorded: cytotoxic agents
activity against clone PTX10 versus parental line (in words) [5]: lose some activity
IC50 ([5]; Homo sapiens, 72 h, SRB, read-out: IC50 against PTX10): < 10 nM

C/C(=C\c1csc(C)n1)[C@@H]1C[C@@H]2C[C@@H]2CCC[C@H](C)[C@H](O)[C@@H](C)C(=O)C(C)(C)[C@@H](O)CC(=O)O1 [Compound 3, cyclopropyl epothilone A]
tubulin polymerization promotion (in words) [1]: potent tubulin polymerization promoters
inhibition of KB-31 cell growth (in words) [8]: slightly more potently
activity against clone A8 versus parental line (in words) [2]: lose some activity
inhibition of 1A9 cell growth (in words) ([7]; parental sensitive 1A9 cells, 3 compared with epothilone A (1)): slightly more potently
cytotoxic activity (in words) [4]: cytotoxic agents
activity against clone PTX10 versus parental line (in words) [5]: lose some activity

Reference: patent US7358266B2, “Cyclopropyl and cyclobutyl epothilone analogs” (The Scripps Research Institute, priority 2001, dated 2008)
